Measurements reported in ChEMBL document CHEMBL3407491, “Synthesis, characterization and in vitro photodynamic antimicrobial activity of basic amino acid-porphyrin conjugates” (Eur J Med Chem, 2015).
≈ marks a conversion by molar mass, not a printed value.

Legend:
[1] = test system: Staphylococcus aureus; assay: Antibacterial activity against methicillin-resistant Staphylococcus aureus incubated in dark for 30 mins measured after 24 hrs; type: functional
[2] = test system: Escherichia coli; assay: Antibacterial activity against Escherichia coli ATCC 25922 incubated in dark for 30 mins measured after 24 hrs; type: functional
[3] = test system: Staphylococcus aureus; assay: Antibacterial activity against methicillin-resistant Staphylococcus aureus assessed as log reduction in bacterial count at 10 uM incubated in dark for 30 mins followed by exposure to light fluences at 650 nm and 6 J/cm2 and then incubated overnight measured after 24 hrs; type: functional
[4] = test system: Staphylococcus aureus; assay: Bactericidal activity against methicillin-resistant Staphylococcus aureus incubated in dark for 30 mins followed by exposure to light fluences at 650 nm and 6 J/cm2 and then incubated overnight followed by further incubation on LB agar plates for another 24 hrs; type: functional; conditions: light or radiation study
[5] = test system: Staphylococcus aureus; assay: Antibacterial activity against methicillin-resistant Staphylococcus aureus incubated in dark for 30 mins followed by exposure to light fluences at 650 nm and 6 J/cm2 and then incubated overnight measured after 24 hrs; type: functional; conditions: light or radiation study
[6] = test system: Pseudomonas aeruginosa; assay: Antibacterial activity against Pseudomonas aeruginosa ATCC 27853 assessed as log reduction in bacterial count at 10 uM incubated in dark for 30 mins followed by exposure to light fluences at 650 nm and 6 J/cm2 and then incubated overnight measured after 24 hrs; type: functional
[7] = Singlet oxygen generation of the compound exposed to 4.2 mW/cm2 light energy density assessed as singlet oxygen quantum yield measured at 410 nm in 10 seconds intervals of irradiation at 0.2 uM by DPBF scavenger based assay
[8] = test system: Escherichia coli; assay: Antibacterial activity against Escherichia coli ATCC 25922 incubated in dark for 30 mins followed by exposure to light fluences at 650 nm and 6 J/cm2 and then incubated overnight measured after 24 hrs; type: functional; conditions: ATCC 25922, light or radiation study
[9] = test system: Escherichia coli; assay: Antibacterial activity against Escherichia coli ATCC 25922 assessed as log reduction in bacterial count at 10 uM incubated in dark for 30 mins followed by exposure to light fluences at 650 nm and 6 J/cm2 and then incubated overnight measured after 24 hrs; type: functional
[10] = test system: Staphylococcus aureus; assay: Antibacterial activity against methicillin-resistant Staphylococcus aureus incubated in dark for 30 mins and grown for 24 hrs followed by further incubation on LB agar plates for another 24 hrs; type: functional
[11] = test system: Escherichia coli; assay: Antibacterial activity against Escherichia coli ATCC 25922 incubated in dark for 30 mins and grown for 24 hrs followed by further incubation on LB agar plates for another 24 hrs; type: functional
[12] = test system: Pseudomonas aeruginosa; assay: Antibacterial activity against Pseudomonas aeruginosa ATCC 27853 incubated in dark for 30 mins measured after 24 hrs; type: functional
[13] = Octanol water partition coefficient, log P of the compound by reverse-phase thin-layer chromatography; type: physicochemical
[14] = test system: Pseudomonas aeruginosa; assay: Antibacterial activity against Pseudomonas aeruginosa ATCC 27853 incubated in dark for 30 mins followed by exposure to light fluences at 650 nm and 6 J/cm2 and then incubated overnight measured after 24 hrs; type: functional; conditions: ATCC 27853, light or radiation study
[15] = test system: Pseudomonas aeruginosa; assay: Bactericidal activity against Pseudomonas aeruginosa ATCC 27853 incubated in dark for 30 mins followed by exposure to light fluences at 650 nm and 6 J/cm2 and then incubated overnight followed by further incubation on LB agar plates for another 24 hrs; type: functional; conditions: ATCC 27853, light or radiation study
[16] = test system: Escherichia coli; assay: Bactericidal activity against Escherichia coli ATCC 25922 incubated in dark for 30 mins followed by exposure to light fluences at 650 nm and 6 J/cm2 and then incubated overnight followed by further incubation on LB agar plates for another 24 hrs; type: functional; conditions: ATCC 25922, light or radiation study
[17] = test system: Pseudomonas aeruginosa; assay: Antibacterial activity against Pseudomonas aeruginosa ATCC 27853 incubated in dark for 30 mins and grown for 24 hrs followed by further incubation on LB agar plates for another 24 hrs; type: functional
[18] = Photostability at 2 x 10^-5 mol/L exposed to 4.2 mW/cm2 light energy density assessed as change in absorption spectra after 30 mins post irradiation; type: physicochemical; conditions: 0.5 h, 20 µM

| SMILES | MIC [1] [µM] | MIC [2] [µM] | Log reduction in bacterial count [3] | MBC [4] [µM] | MIC [5] [µM] | log reduction in bacterial count [6] | Activity [7] | MIC [8] [µM] | log reduction in bacterial count [9] | MBC [10] [µM] | MBC [11] [µM] | MIC [12] [µM] | logP [13] | MIC [14] [µM] | MBC [15] [µM] | MBC [16] [µM] | MBC [17] [µM] | Activity [18] [%] |
| --- | --- | --- | --- | --- | --- | --- | --- | --- | --- | --- | --- | --- | --- | --- | --- | --- | --- | --- |
| NCCCC[C@H](N)C(=O)Nc1ccc(-c2c3nc(c(-c4ccc(NC(=O)[C@@H](N)CCCCN)cc4)c4ccc([nH]4)c(-c4ccccc4)c4nc(c(-c5ccccc5)c5ccc2[nH]5)C=C4)C=C3)cc1 | 62.5 (≈ 56.3 µg/mL) | 125 (≈ 113 µg/mL) | 3 | 62.5 (≈ 56.3 µg/mL) | 31.2 (≈ 28.2 µg/mL) | >5 | 0.65 | 31.2 (≈ 28.2 µg/mL) | 2 | 125 (≈ 113 µg/mL) | 250 (≈ 225 µg/mL) | 62.5 (≈ 56.3 µg/mL) | 1.39 | 31.2 (≈ 28.2 µg/mL) | 62.5 (≈ 56.3 µg/mL) | 62.5 (≈ 56.3 µg/mL) | 125 (≈ 113 µg/mL) | < 20 |
| NCCCC[C@H](N)C(=O)Nc1ccc(-c2c3nc(c(-c4ccc(N)cc4)c4ccc([nH]4)c(-c4ccc(NC(=O)[C@@H](N)CCCCN)cc4)c4nc(c(-c5ccc(N)cc5)c5ccc2[nH]5)C=C4)C=C3)cc1 | 125 (≈ 116 µg/mL) | 250 (≈ 233 µg/mL) | 3 | 15.6 (≈ 14.6 µg/mL) | 7.81 (≈ 7.27 µg/mL) | >5 | 0.79 | 15.6 (≈ 14.6 µg/mL) | 2 | 250 (≈ 233 µg/mL) | 500 (≈ 466 µg/mL) | 250 (≈ 233 µg/mL) | 1.3 | 15.6 (≈ 14.6 µg/mL) | 31.2 (≈ 29.1 µg/mL) | 31.2 (≈ 29.1 µg/mL) | 500 (≈ 466 µg/mL) | < 20 |
| NCCCC[C@H](N)C(=O)Nc1ccc(-c2c3nc(c(-c4ccccc4)c4ccc([nH]4)c(-c4ccc(NC(=O)[C@@H](N)CCCCN)cc4)c4nc(c(-c5ccccc5)c5ccc2[nH]5)C=C4)C=C3)cc1 | 125 (≈ 113 µg/mL) | 62.5 (≈ 56.3 µg/mL) | 3 | 31.2 (≈ 28.2 µg/mL) | 15.6 (≈ 14.1 µg/mL) | >5 | 0.57 | 15.6 (≈ 14.1 µg/mL) | 2 | 250 (≈ 225 µg/mL) | 125 (≈ 113 µg/mL) | 62.5 (≈ 56.3 µg/mL) | 1.37 | 31.2 (≈ 28.2 µg/mL) | 62.5 (≈ 56.3 µg/mL) | 31.2 (≈ 28.2 µg/mL) | 125 (≈ 113 µg/mL) | < 20 |
